ChEMBL document CHEMBL1201862, “PubChem BioAssay data set” (2004)
Where a name gives a salt, the structure may show the parent alone.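 Compound exposure: 48 hours, 5 concentrations, 96-well plates. The concentration for 50% growth inhibition is given as GI50.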 Calls of active or inactive are those of the source. Cut-off read from the data, not from the text of the source: active = GI50 up to about 1.1 µM and inactive = higher.

Tests used:
Experiment in all cases: NCI anticancer screen, dose series, 48 h
[1] = tested on: SK-OV-3
[2] = tested on: SK-MEL-28
[3] = tested on: RXF 393
[4] = tested on: SK-MEL-2
[5] = tested on: SN12C
[6] = tested on: IGROV-1
[7] = tested on: KM12
[8] = tested on: HL-60
[9] = tested on: SF-295
[10] = tested on: K562
[11] = tested on: U-251
[12] = tested on: T47D
[13] = tested on: SK-MEL-5
[14] = tested on: CCRF-CEM
[15] = tested on: TK-10
[16] = tested on: NCI-H23
[17] = tested on: SW-620
[18] = tested on: MCF7
[19] = tested on: UACC-62
[20] = tested on: MDA-MB-231

Structure (SMILES)	GI50 [1]	GI50 [2]	GI50 [3]	GI50 [4]	GI50 [5]	GI50 [6]	GI50 [7]	GI50 [8]	GI50 [9]	GI50 [10]	GI50 [11]	GI50 [12]	GI50 [13]	GI50 [14]	GI50 [15]	GI50 [16]	GI50 [17]	GI50 [18]	GI50 [19]	GI50 [20]
Cc1cc(S(=O)(=O)Nc2cc(N)n[nH]2)c(SCc2nc(N)nc(N(C)C)n2)cc1Cl	> 10 µM (inactive)	> 10 µM (inactive)	> 10 µM (inactive)	> 10 µM (inactive)	> 10 µM (inactive)	> 10 µM (inactive)	> 10 µM (inactive)	> 10 µM (inactive)	> 10 µM (inactive)	> 10 µM (inactive)	> 10 µM (inactive)	> 10 µM (inactive)	> 10 µM (inactive)	> 10 µM (inactive)	> 10 µM (inactive)	> 10 µM (inactive)	> 10 µM (inactive)	> 10 µM (inactive)	–	–
COC(=O)CN(CC1O[C@@H]2OC(C)(C)O[C@@H]2C1N=[N+]=[N-])C(=O)OCc1ccccc1 (stereo partly specified)	> 100 µM (inactive)	> 100 µM (inactive)	–	> 100 µM (inactive)	> 100 µM (inactive)	> 100 µM (inactive)	> 100 µM (inactive)	69.3 µM (inactive)	> 100 µM (inactive)	57 µM (inactive)	> 100 µM (inactive)	> 100 µM (inactive)	> 100 µM (inactive)	–	> 100 µM (inactive)	–	> 100 µM (inactive)	> 100 µM (inactive)	> 100 µM (inactive)	> 100 µM (inactive)
Cc1cccc2c1c(=O)c1c(O)cc(O)cc1n2C	66.1 µM (inactive)	> 100 µM (inactive)	59.8 µM (inactive)	> 100 µM (inactive)	> 100 µM (inactive)	> 100 µM (inactive)	> 100 µM (inactive)	> 100 µM (inactive)	89.1 µM (inactive)	80.5 µM (inactive)	> 100 µM (inactive)	–	34.2 µM (inactive)	> 100 µM (inactive)	> 100 µM (inactive)	> 100 µM (inactive)	> 100 µM (inactive)	> 100 µM (inactive)	90.6 µM (inactive)	> 100 µM (inactive)
C1CSCC2(COC2)CSCCSCC2(COC2)CS1	> 100 µM (inactive)	> 100 µM (inactive)	–	–	> 100 µM (inactive)	> 100 µM (inactive)	> 100 µM (inactive)	> 100 µM (inactive)	> 100 µM (inactive)	> 100 µM (inactive)	> 100 µM (inactive)	> 100 µM (inactive)	> 100 µM (inactive)	> 100 µM (inactive)	> 100 µM (inactive)	> 100 µM (inactive)	> 100 µM (inactive)	> 100 µM (inactive)	> 100 µM (inactive)	> 100 µM (inactive)
CCOC(=O)C1CCCCc2sc(N)c(C#N)c21 (stereo unspecified)	–	> 100 µM (inactive)	> 100 µM (inactive)	> 100 µM (inactive)	> 100 µM (inactive)	> 100 µM (inactive)	> 100 µM (inactive)	> 100 µM (inactive)	–	> 100 µM (inactive)	> 100 µM (inactive)	–	> 100 µM (inactive)	–	> 100 µM (inactive)	> 100 µM (inactive)	> 100 µM (inactive)	> 100 µM (inactive)	> 100 µM (inactive)	> 100 µM (inactive)
CN(C(=O)[C@H](NC(=O)OCc1ccccc1)c1ccccc1)C1CCCCC1N1CCCC1 (stereo partly specified)	> 100 µM (inactive)	> 100 µM (inactive)	87.3 µM (inactive)	> 100 µM (inactive)	> 100 µM (inactive)	70.3 µM (inactive)	> 100 µM (inactive)	–	> 100 µM (inactive)	29 µM (inactive)	> 100 µM (inactive)	> 100 µM (inactive)	16 µM (inactive)	38.8 µM (inactive)	74.6 µM (inactive)	> 100 µM (inactive)	> 100 µM (inactive)	98.2 µM (inactive)	> 100 µM (inactive)	> 100 µM (inactive)
O=C(OCCN1CCCCCC1)C(c1ccsc1)C1CCCCC1 (stereo unspecified) [CETIEDIL CITRATE]	16.9 µM (inactive)	20.3 µM (inactive)	–	–	17.9 µM (inactive)	11.1 µM (inactive)	16.8 µM (inactive)	24.5 µM (inactive)	17.9 µM (inactive)	–	17.2 µM (inactive)	3.28 µM (inactive)	–	15.7 µM (inactive)	16 µM (inactive)	18.5 µM (inactive)	16.6 µM (inactive)	16.7 µM (inactive)	–	16.7 µM (inactive)
COC(=O)C(Cc1ccccc1)OC(=O)C(N)CC(=O)O (stereo unspecified)	> 100 µM (inactive)	> 100 µM (inactive)	> 100 µM (inactive)	> 100 µM (inactive)	> 100 µM (inactive)	> 100 µM (inactive)	–	–	> 100 µM (inactive)	> 100 µM (inactive)	–	> 100 µM (inactive)	> 100 µM (inactive)	–	> 100 µM (inactive)	5.11 µM (inactive)	> 100 µM (inactive)	> 100 µM (inactive)	> 100 µM (inactive)	> 100 µM (inactive)
COc1cc(C(c2ccc3c(c2)OCO3)C2SCCCS2)cc(OC)c1OC (stereo unspecified)	2.81 µM (inactive)	4.91 µM (inactive)	1.35 µM (inactive)	77.4 µM (inactive)	2.51 µM (inactive)	2.49 µM (inactive)	3.09 µM (inactive)	–	1.94 µM (inactive)	1.85 µM (inactive)	3.01 µM (inactive)	3.56 µM (inactive)	3.34 µM (inactive)	1.49 µM (inactive)	5.2 µM (inactive)	3.76 µM (inactive)	3.11 µM (inactive)	2.62 µM (inactive)	2.75 µM (inactive)	2.3 µM (inactive)
c1ccc2c(-c3ccnc(-c4c[nH]c5ccccc45)n3)c[nH]c2c1	10.7 µM (inactive)	6.9 µM (inactive)	–	4.16 µM (inactive)	2.78 µM (inactive)	< 0.01 µM (active)	3.94 µM (inactive)	2.29 µM (inactive)	2.93 µM (inactive)	4.13 µM (inactive)	3.86 µM (inactive)	3.85 µM (inactive)	3.27 µM (inactive)	1.51 µM (inactive)	8.67 µM (inactive)	–	4.86 µM (inactive)	2.74 µM (inactive)	1.95 µM (inactive)	1.85 µM (inactive)
CC(=O)Oc1ccc2c3c1O[C@H]1[C@H](O)CC[C@@]4(O)[C@@H](C2)N(C)CC[C@]314	> 100 µM (inactive)	> 100 µM (inactive)	–	> 100 µM (inactive)	> 100 µM (inactive)	> 100 µM (inactive)	> 100 µM (inactive)	> 100 µM (inactive)	> 100 µM (inactive)	–	> 100 µM (inactive)	> 100 µM (inactive)	> 100 µM (inactive)	–	> 100 µM (inactive)	> 100 µM (inactive)	> 100 µM (inactive)	> 100 µM (inactive)	> 100 µM (inactive)	> 100 µM (inactive)
O=C(O)C1C2CC3C(OC(=O)C31)C2Br (stereo unspecified)	> 100 µM (inactive)	> 100 µM (inactive)	> 100 µM (inactive)	> 100 µM (inactive)	> 100 µM (inactive)	> 100 µM (inactive)	> 100 µM (inactive)	–	> 100 µM (inactive)	> 47.8 µM (inactive)	> 100 µM (inactive)	> 100 µM (inactive)	> 100 µM (inactive)	> 100 µM (inactive)	> 100 µM (inactive)	> 100 µM (inactive)	> 100 µM (inactive)	> 100 µM (inactive)	> 100 µM (inactive)	> 100 µM (inactive)
Cc1c2cccc-2c(OCCOC(=O)n2ccnc2)cc2c1[nH]c1ccccc12	4.74 µM (inactive)	2.02 µM (inactive)	2.57 µM (inactive)	1.98 µM (inactive)	2.58 µM (inactive)	1.77 µM (inactive)	2.14 µM (inactive)	2.12 µM (inactive)	2.96 µM (inactive)	4.01 µM (inactive)	–	2.49 µM (inactive)	2.42 µM (inactive)	–	3.85 µM (inactive)	2.44 µM (inactive)	3.08 µM (inactive)	3.24 µM (inactive)	2.62 µM (inactive)	–
CC1(C)O[C@@H](CP(c2ccccc2)c2ccccc2)[C@H](CP(c2ccccc2)c2ccccc2)O1	15.2 µM (inactive)	12.3 µM (inactive)	8.15 µM (inactive)	–	4.11 µM (inactive)	2.33 µM (inactive)	2.85 µM (inactive)	–	5.62 µM (inactive)	–	3.66 µM (inactive)	3.76 µM (inactive)	5.74 µM (inactive)	2.4 µM (inactive)	14.2 µM (inactive)	1.53 µM (inactive)	17.2 µM (inactive)	–	–	5.85 µM (inactive)
CC(C)OC(=O)NCCn1cc(-c2ccccc2)nn1	–	> 100 µM (inactive)	–	> 100 µM (inactive)	> 100 µM (inactive)	–	> 100 µM (inactive)	> 100 µM (inactive)	> 100 µM (inactive)	> 100 µM (inactive)	> 100 µM (inactive)	–	> 100 µM (inactive)	> 100 µM (inactive)	> 100 µM (inactive)	> 100 µM (inactive)	–	> 100 µM (inactive)	–	> 100 µM (inactive)
NNC1=N/C(=C\c2ccco2)C(=O)N1	> 100 µM (inactive)	> 100 µM (inactive)	–	> 100 µM (inactive)	> 100 µM (inactive)	65.2 µM (inactive)	> 100 µM (inactive)	> 100 µM (inactive)	> 100 µM (inactive)	93.3 µM (inactive)	91.8 µM (inactive)	> 100 µM (inactive)	> 100 µM (inactive)	> 10 µM (inactive)	> 100 µM (inactive)	> 100 µM (inactive)	> 100 µM (inactive)	> 100 µM (inactive)	33 µM (inactive)	> 100 µM (inactive)
